Results taken from paper PMC5218480 (PLoS ONE, 2017).

System: MV-4-11 cells
Experiment: Gene expression microarray analysis (Affymetrix PrimeView) and GSEA
Assay type: cell-based, human
Set-up: RFU PODN (11730768_x_at) / Fold change /veh PODN (11730768_x_at) / RFU LINC00158 (11744669_a_at) / Fold change /veh LINC00158 (11744669_a_at) / RFU DUSP10 (11751237_a_at) / Fold change /veh DUSP10 (11751237_a_at) / RFU ID3 (11757404_x_at) / Fold change /veh ID3 (11757404_x_at) / RFU PLEKHG5 (11737974_s_at) / Fold change /veh PLEKHG5 (11737974_s_at) / RFU LRRC4B (11730491_at) / Fold change /veh LRRC4B (11730491_at) / RFU GIMAP4 (11747438_a_at) / Fold change /veh GIMAP4 (11747438_a_at) / RFU KRT8 (11758183_x_at) / Fold change /veh KRT8 (11758183_x_at) / RFU CNN1 (11734310_a_at) / Fold change /veh CNN1 (11734310_a_at) / RFU VPS37D (11726825_at) / Fold change /veh VPS37D (11726825_at) / RFU C10orf10 (11716522_x_at) / Fold change /veh C10orf10 (11716522_x_at) / RFU KIR2DL2 /// KIR2DL4 /// KIR2DL5A /// KIR2DL5B /// KIR2DS1 /// KIR2DS2 /// KIR2DS3 /// KIR2DS4 /// KIR3DL3 /// KIR3DL3 /// KIR3DS1 (11738374_at) / Fold change /veh KIR2DL2 /// KIR2DL4 /// KIR2DL5A /// KIR2DL5B /// KIR2DS1 /// KIR2DS2 /// KIR2DS3 /// KIR2DS4 /// KIR3DL3 /// KIR3DL3 /// KIR3DS1 (11738374_at) / RFU C1QL1 (11718748_at) / Fold change /veh C1QL1 (11718748_at) / RFU TMPRSS4 (11747572_a_at) / Fold change /veh TMPRSS4 (11747572_a_at) / RFU HAMP (11756126_x_at) / Fold change /veh HAMP (11756126_x_at) / RFU RNFT2 (11725882_a_at) / Fold change /veh RNFT2 (11725882_a_at) / RFU NR4A2 (11747474_a_at) / Fold change /veh NR4A2 (11747474_a_at) / RFU ABCC12 (11746883_a_at) / Fold change /veh ABCC12 (11746883_a_at) / RFU TMEM136 (11760407_x_at) / Fold change /veh TMEM136 (11760407_x_at) / RFU CLDN22 /// WWC2 (11732394_at) / Fold change /veh CLDN22 /// WWC2 (11732394_at) / RFU HLA-DPB1 (11760878_x_at) / Fold change /veh HLA-DPB1 (11760878_x_at) / RFU SPINT1 (11716480_a_at) / Fold change /veh SPINT1 (11716480_a_at) / RFU GAP43 (11754022_s_at) / Fold change /veh GAP43 (11754022_s_at) / RFU A4GNT (11735810_at) / Fold change /veh A4GNT (11735810_at) / RFU PRB3 (11715151_x_at) / Fold change /veh PRB3 (11715151_x_at) / RFU TUBB4B (11761932_at) / Fold change /veh TUBB4B (11761932_at) / RFU CAPN14 (11732068_a_at) / Fold change /veh CAPN14 (11732068_a_at) / RFU TMCC2 (11721928_a_at) / Fold change /veh TMCC2 (11721928_a_at) / RFU IRGQ (11745062_a_at) / Fold change /veh IRGQ (11745062_a_at) / RFU FAM174B (11720279_a_at) / Fold change /veh FAM174B (11720279_a_at) / RFU TMPRSS4 (11748680_a_at) / Fold change /veh TMPRSS4 (11748680_a_at) / RFU FAM212B (11763350_a_at) / Fold change /veh FAM212B (11763350_a_at) / RFU PLEKHG5 (11743358_a_at) / Fold change /veh PLEKHG5 (11743358_a_at) / RFU ZSCAN30 (11745921_a_at) / Fold change /veh ZSCAN30 (11745921_a_at) / RFU CMKLR1 (11741424_a_at) / Fold change /veh CMKLR1 (11741424_a_at) / RFU LOC101060620 /// MAPK8IP1 (11723275_at) / Fold change /veh LOC101060620 /// MAPK8IP1 (11723275_at) / RFU SPTSSB (11747773_x_at) / Fold change /veh SPTSSB (11747773_x_at) / RFU PRSS12 (11739890_at) / Fold change /veh PRSS12 (11739890_at) / RFU BIN1 (11741810_x_at) / Fold change /veh BIN1 (11741810_x_at) / RFU WNT11 (11732464_a_at) / Fold change /veh WNT11 (11732464_a_at) / RFU C10orf10 (11716521_a_at) / Fold change /veh C10orf10 (11716521_a_at) / RFU C5orf56 (11738089_at) / Fold change /veh C5orf56 (11738089_at) / RFU CYB561 (11721691_x_at) / Fold change /veh CYB561 (11721691_x_at) / RFU ANKRD19P (11752326_a_at) / Fold change /veh ANKRD19P (11752326_a_at) / RFU OR2T12 /// OR2T33 /// OR2T8 (11738714_s_at) / Fold change /veh OR2T12 /// OR2T33 /// OR2T8 (11738714_s_at) / RFU VCAN (11748164_a_at) / Fold change /veh VCAN (11748164_a_at) / RFU JSRP1 (11732532_at) / Fold change /veh JSRP1 (11732532_at) / RFU KRTAP10-11 (11738290_x_at) / Fold change /veh KRTAP10-11 (11738290_x_at) / RFU MYO3A (11730013_a_at) / Fold change /veh MYO3A (11730013_a_at) / RFU EBF3 (11725865_a_at) / Fold change /veh EBF3 (11725865_a_at) / RFU CAMK2N1 (11719241_x_at) / Fold change /veh CAMK2N1 (11719241_x_at) / RFU C5orf56 (11738088_a_at) / Fold change /veh C5orf56 (11738088_a_at) / RFU OLFML3 (11715873_a_at) / Fold change /veh OLFML3 (11715873_a_at) / RFU LOC100653217 /// NTM (11731650_a_at) / Fold change /veh LOC100653217 /// NTM (11731650_a_at) / RFU MAPK11 (11762145_a_at) / Fold change /veh MAPK11 (11762145_a_at) / RFU FIZ1 (11724087_x_at) / Fold change /veh FIZ1 (11724087_x_at) / RFU OASL (11726364_x_at) / Fold change /veh OASL (11726364_x_at) / RFU SOX15 (11748057_x_at) / Fold change /veh SOX15 (11748057_x_at) / RFU CD79A (11719716_a_at) / Fold change /veh CD79A (11719716_a_at) / RFU HIST1H1D (11736915_at) / Fold change /veh HIST1H1D (11736915_at) / RFU CASKIN2 (11723855_a_at) / Fold change /veh CASKIN2 (11723855_a_at) / RFU LOC730098 (11760151_x_at) / Fold change /veh LOC730098 (11760151_x_at) / RFU OR4N2 (11742367_at) / Fold change /veh OR4N2 (11742367_at) / RFU PRRT2 (11749266_a_at) / Fold change /veh PRRT2 (11749266_a_at) / RFU SNX32 (11753110_a_at) / Fold change /veh SNX32 (11753110_a_at) / RFU CDHR5 (11726645_a_at) / Fold change /veh CDHR5 (11726645_a_at) / RFU RCAN1 (11760418_a_at) / Fold change /veh RCAN1 (11760418_a_at) / RFU FAM167A (11723789_a_at) / Fold change /veh FAM167A (11723789_a_at) / RFU FAM26E (11764081_at) / Fold change /veh FAM26E (11764081_at) / RFU ISYNA1 (11749810_s_at) / Fold change /veh ISYNA1 (11749810_s_at) / RFU ACY1 (11761880_at) / Fold change /veh ACY1 (11761880_at) / RFU 11764098_at / Fold change /veh 11764098_at / RFU SAMD14 (11745864_x_at) / Fold change /veh SAMD14 (11745864_x_at) / RFU NPB (11741838_a_at) / Fold change /veh NPB (11741838_a_at) / RFU TMPRSS6 (11731388_a_at) / Fold change /veh TMPRSS6 (11731388_a_at) / RFU KRTAP10-2 (11738614_at) / Fold change /veh KRTAP10-2 (11738614_at) / RFU ARHGAP8 /// PRR5-ARHGAP8 (11727945_x_at) / Fold change /veh ARHGAP8 /// PRR5-ARHGAP8 (11727945_x_at) / RFU KRTAP5-7 /// NADSYN1 (11734609_at) / Fold change /veh KRTAP5-7 /// NADSYN1 (11734609_at) / RFU RASL12 (11751679_a_at) / Fold change /veh RASL12 (11751679_a_at) / RFU CDKN2B (11736163_a_at) / Fold change /veh CDKN2B (11736163_a_at) / RFU PRF1 (11729649_at) / Fold change /veh PRF1 (11729649_at) / RFU, ZNF638 /// ZNF638-IT1 / Fold change vs veh, ZNF638 /// ZNF638-IT1 / RFU, PANK3 / Fold change vs veh, PANK3 / RFU, SH3YL1 / Fold change vs veh, SH3YL1 / RFU, ZEB2 / Fold change vs veh, ZEB2 / RFU, NRIP1 / Fold change vs veh, NRIP1 / RFU, PTTG1IP / Fold change vs veh, PTTG1IP / RFU, CAPN2 / Fold change vs veh, CAPN2 / RFU, MED14 / Fold change vs veh, MED14 / RFU, SNORA58 / Fold change vs veh, SNORA58 / RFU, C1orf63 / Fold change vs veh, C1orf63 / RFU, LRRFIP1 / Fold change vs veh, LRRFIP1 / RFU, NDUFAF7 / Fold change vs veh, NDUFAF7 / RFU, SLC12A2 / Fold change vs veh, SLC12A2 / RFU, IBTK / Fold change vs veh, IBTK / RFU, ESF1 / Fold change vs veh, ESF1 / Fold change vs veh, TMEM50B / RFU, TAOK1 / Fold change vs veh, TAOK1 / RFU, ACBD3 / Fold change vs veh, ACBD3 / RFU, TMA16 / Fold change vs veh, TMA16 / RFU, RWDD3 / Fold change vs veh, RWDD3 / RFU, BCAT1 / Fold change vs veh, BCAT1 / RFU, EDEM3 / Fold change vs veh, EDEM3 / RFU, TMEM33 / Fold change vs veh, TMEM33 / RFU, WDR75 / Fold change vs veh, WDR75 / RFU, AHCTF1 / Fold change vs veh, AHCTF1 / RFU, TFRC / Fold change vs veh, TFRC / RFU, ZDHHC17 / Fold change vs veh, ZDHHC17 / RFU, NOM1 / Fold change vs veh, NOM1 / RFU, ARL8B / Fold change vs veh, ARL8B / RFU, ZBTB11 / Fold change vs veh, ZBTB11 / RFU, TAMM41 / Fold change vs veh, TAMM41 / RFU, KIAA1704 /// LOC100996395 / Fold change vs veh, KIAA1704 /// LOC100996395 / RFU, ING1 / Fold change vs veh, ING1 / RFU, TRMT61B / Fold change vs veh, TRMT61B / RFU, FUBP3 / Fold change vs veh, FUBP3 / RFU, TP53 / Fold change vs veh, TP53 / RFU, TNKS2 / Fold change vs veh, TNKS2 / RFU, ZFP14 / Fold change vs veh, ZFP14 / RFU, ACTR2 / Fold change vs veh, ACTR2 / RFU, PPP3R1 / Fold change vs veh, PPP3R1 / RFU, PIK3R1 / Fold change vs veh, PIK3R1 / RFU, HNRNPA1 / Fold change vs veh, HNRNPA1 / RFU, RNF170 / Fold change vs veh, RNF170 / RFU, ZNF28 / Fold change vs veh, ZNF28 / RFU, RNGTT / Fold change vs veh, RNGTT / RFU, OGT / Fold change vs veh, OGT / RFU, BRD1 / Fold change vs veh, BRD1 / RFU, MARS / Fold change vs veh, MARS / RFU, ZNF655 / Fold change vs veh, ZNF655 / RFU, FAHD1 / Fold change vs veh, FAHD1 / RFU, BDP1 / Fold change vs veh, BDP1 / RFU, LRRCC1 / Fold change vs veh, LRRCC1 / RFU, ARID1A / Fold change vs veh, ARID1A / RFU, ZNF146 / Fold change vs veh, ZNF146 / RFU, ZNF330 / Fold change vs veh, ZNF330 / RFU, GPN3 / Fold change vs veh, GPN3 / RFU, C9orf123 / Fold change vs veh, C9orf123 / RFU, N4BP2L2 / Fold change vs veh, N4BP2L2 / RFU, ARFIP1 / Fold change vs veh, ARFIP1 / RFU, FAM179B / Fold change vs veh, FAM179B / RFU, BCL10 / Fold change vs veh, BCL10 / RFU, UHRF1BP1L / Fold change vs veh, UHRF1BP1L / RFU, BET1 / Fold change vs veh, BET1 / RFU, CNOT2 / Fold change vs veh, CNOT2 / RFU, ZNF268 / Fold change vs veh, ZNF268 / Fold change vs veh, ZNF507 / RFU, DGCR2 / Fold change vs veh, DGCR2 / RFU, WDSUB1 / Fold change vs veh, WDSUB1 / Fold change vs veh, HSP90B1 /// MIR3652 / RFU, ADSS / Fold change vs veh, ADSS / RFU, GK / Fold change vs veh, GK / RFU, ZNF148 / Fold change vs veh, ZNF148 / RFU, TAF9 / Fold change vs veh, TAF9 / RFU, SLC1A5 / Fold change vs veh, SLC1A5 / RFU, SLMO2 / Fold change vs veh, SLMO2 / RFU, ABCC4 / Fold change vs veh, ABCC4 / RFU, LOC101060439 /// RAP1B / Fold change vs veh, LOC101060439 /// RAP1B / RFU, RFX7 / Fold change vs veh, RFX7 / RFU, GTPBP10 / Fold change vs veh, GTPBP10 / RFU, CNEP1R1 / Fold change vs veh, CNEP1R1 / RFU, BIVM-ERCC5 /// ERCC5 / Fold change vs veh, BIVM-ERCC5 /// ERCC5 / RFU, ILF3 / Fold change vs veh, ILF3 / RFU 11762660_at / Fold change /veh 11762660_at / RFU VCAN (11757783_s_at) / Fold change /veh VCAN (11757783_s_at) / RFU DDX43 (11728927_at) / Fold change /veh DDX43 (11728927_at) / RFU KRT8 (11758188_x_at) / Fold change /veh KRT8 (11758188_x_at) / RFU NKD1 (11759106_at) / Fold change /veh NKD1 (11759106_at) / RFU SRD5A1 (11742802_a_at) / Fold change /veh SRD5A1 (11742802_a_at) / RFU TPSAB1 /// TPSB2 (11721975_s_at) / Fold change /veh TPSAB1 /// TPSB2 (11721975_s_at) / RFU GSTM3 (11746129_a_at) / Fold change /veh GSTM3 (11746129_a_at) / RFU IL23R (11737362_x_at) / Fold change /veh IL23R (11737362_x_at) / RFU TMEM51 (11727254_a_at) / Fold change /veh TMEM51 (11727254_a_at) / RFU PIWIL2 (11732686_x_at) / Fold change /veh PIWIL2 (11732686_x_at) / RFU ORM1 (11744905_x_at) / Fold change /veh ORM1 (11744905_x_at) / RFU CCDC152 (11743942_at) / Fold change /veh CCDC152 (11743942_at) / RFU ECM1 (11717891_a_at) / Fold change /veh ECM1 (11717891_a_at) / RFU IL23R (11748794_a_at) / Fold change /veh IL23R (11748794_a_at) / RFU TNFAIP8L3 (11732012_x_at) / Fold change /veh TNFAIP8L3 (11732012_x_at) / RFU MBOAT4 (11741988_at) / Fold change /veh MBOAT4 (11741988_at) / RFU 11764193_at / Fold change /veh 11764193_at / RFU TMEM53 (11763286_at) / Fold change /veh TMEM53 (11763286_at) / RFU MAGEB2 (11727129_at) / Fold change /veh MAGEB2 (11727129_at) / RFU TMEM200A (11744735_a_at) / Fold change /veh TMEM200A (11744735_a_at) / RFU CCDC152 (11751479_a_at) / Fold change /veh CCDC152 (11751479_a_at) / RFU FAM211A (11726209_a_at) / Fold change /veh FAM211A (11726209_a_at) / RFU RGS16 (11746705_a_at) / Fold change /veh RGS16 (11746705_a_at) / RFU VCAN (11755009_s_at) / Fold change /veh VCAN (11755009_s_at) / RFU RHOB (11743442_s_at) / Fold change /veh RHOB (11743442_s_at) / RFU RGS16 (11720943_a_at) / Fold change /veh RGS16 (11720943_a_at) / RFU RGS16 (11720944_at) / Fold change /veh RGS16 (11720944_at) / RFU, VPS4B / Fold change vs veh, VPS4B / RFU, CREB1 / Fold change vs veh, CREB1 / RFU, DNAJC13 / Fold change vs veh, DNAJC13 / RFU, GNAQ / Fold change vs veh, GNAQ / RFU, CDK5R1 / Fold change vs veh, CDK5R1 / RFU, ZRANB3 / Fold change vs veh, ZRANB3 / RFU, CUL4A / Fold change vs veh, CUL4A / RFU, CCNY / Fold change vs veh, CCNY / RFU, UFL1 / Fold change vs veh, UFL1 / RFU, COG3 / Fold change vs veh, COG3 / RFU, DIAPH2 / Fold change vs veh, DIAPH2 / RFU, SKA2 / Fold change vs veh, SKA2 / RFU, AFF3 / Fold change vs veh, AFF3 / RFU, LMF1 / Fold change vs veh, LMF1 / RFU, IPO11 / Fold change vs veh, IPO11 / RFU, DFFB / Fold change vs veh, DFFB / RFU, FOXP1 / Fold change vs veh, FOXP1 / RFU, CARD8 / Fold change vs veh, CARD8 / RFU, STRN3 / Fold change vs veh, STRN3 / RFU, ADK / Fold change vs veh, ADK / RFU, RASSF2 / Fold change vs veh, RASSF2 / RFU, WIPF1 / Fold change vs veh, WIPF1 / RFU, LARP1B / Fold change vs veh, LARP1B / RFU, RASA1 / Fold change vs veh, RASA1 / RFU, RB1 / Fold change vs veh, RB1 / RFU, PPFIA1 / Fold change vs veh, PPFIA1 / RFU, MAT2A / Fold change vs veh, MAT2A / RFU, CCT5 / Fold change vs veh, CCT5 / RFU, WDR92 / Fold change vs veh, WDR92 / RFU, CUX1 / Fold change vs veh, CUX1 / RFU, TTC7A / Fold change vs veh, TTC7A / RFU, TMEM135 / Fold change vs veh, TMEM135 / RFU, DEPTOR / Fold change vs veh, DEPTOR / RFU, CPM / Fold change vs veh, CPM / RFU, DNAJB6 / Fold change vs veh, DNAJB6 / RFU, CACNA2D3 / Fold change vs veh, CACNA2D3 / RFU, DTX4 / Fold change vs veh, DTX4 / RFU, TFCP2 / Fold change vs veh, TFCP2 / RFU, GMCL1 /// GMCL1P1 / Fold change vs veh, GMCL1 /// GMCL1P1 / RFU, AEBP2 / Fold change vs veh, AEBP2 / RFU, SNHG1 /// SNORD22 /// SNORD25 /// SNORD26 /// SNORD27 /// SNORD28 /// SNORD29 /// SNORD31 / Fold change vs veh, SNHG1 /// SNORD22 /// SNORD25 /// SNORD26 /// SNORD27 /// SNORD28 /// SNORD29 /// SNORD31 / Fold change (Aza/veh), C12orf56 (ProbeSet 11735607_a_at) / Fold change (ACY-1035/veh), C12orf56 (ProbeSet 11735607_a_at) / Fold change (Aza/veh), FGFR1OP (ProbeSet 11751329_s_at) / Fold change (ACY-1035/veh), FGFR1OP (ProbeSet 11751329_s_at) / Fold change (Aza/veh), VPS36 (ProbeSet 11739960_a_at) / Fold change (ACY-1035/veh), VPS36 (ProbeSet 11739960_a_at) / RFU SYPL1 (11715823_x_at) / Fold change /veh SYPL1 (11715823_x_at) / RFU IGFBP7 (11715501_s_at) / Fold change /veh IGFBP7 (11715501_s_at) / RFU REEP3 (11722064_at) / Fold change /veh REEP3 (11722064_at) / RFU IGLL1 (11728026_x_at) / Fold change /veh IGLL1 (11728026_x_at): dose or concentration left out as unconfirmed
Conditions: MV-4-11 cells, 48 hours

Structure (SMILES): Nc1ncn([C@@H]2O[C@H](CO)[C@@H](O)[C@H]2O)c(=O)n1 [azacitidine]
- Fold change /veh A4GNT (11735810_at): 0.90
